From PubChem BioAssay AID240 (DTP/NCI, 2004) come the findings set out here.

Several values for one entry are separate records, joined by “and”; a condition that tells them apart may be missing. Identical values can stand only once. Inconclusive results and toxic doses are left out.

In the test the test system is Lymphoma 4 ip in BDF1 mice, median survival. Description: NCI In Vivo Anticancer Drug Screen. Data for tumor model Lymphoma 4 (intraperitoneal) in B6D2F1 (BDF1) mice. As to conditions: endpoint: median survival time, schedule: Q01DX010 (ip), vehicle: saline, higher = longer survival. The method, then: The antitumor activity of compounds was measured in mice bearing transplantable tumors. Survival or tumor size were measured and the results are expressed as the measurement made in the treated group (T) divided by the measurement made in the vehicle treated control group (C). The tumor model used in this assay is Lymphoma 4 (intraperitoneal) in B6D2F1 (BDF1) mice

Regarding `C1CN1c1nc(N2CC2)nc(N2CC2)n1`, the T/C is, setting by setting: (dose: 0.13 mg/kg/injection) 94 % of control and 105 % of control; (dose: 0.25 mg/kg/injection) 100 % of control and 102 % of control; (dose: 0.5 mg/kg/injection) 108 % of control; (dose: 1.0 mg/kg/injection) 97 % of control.
Turning to `COCCCNP(=S)(N1CC1)N1CC1`, the T/C reads like this: (dose: 0.5 mg/kg/injection) 93 % of control; (dose: 1.0 mg/kg/injection) 100 % of control; (dose: 2.0 mg/kg/injection) 113 % of control; (dose: 4.0 mg/kg/injection) 116 % of control.
Turning to `O=[n+]1c2c(n([O-])c3ccccc31)-c1cccc3cccc-2c13`, the T/C (dose: 3.13 mg/kg/injection) was 107 % of control, the T/C (dose: 6.25 mg/kg/injection) was 107 % of control, the T/C (dose: 12.5 mg/kg/injection) was 115 % of control and the T/C (dose: 25.0 mg/kg/injection) was 100 % of control.
Take `CCCSc1ncnc2nc[nH]c12`: the T/C by setting is: (dose: 31.3 mg/kg/injection) 93 % of control and 96 % of control; (dose: 125.0 mg/kg/injection) 93 % of control and 96 % of control.
For `C[C@@H]1C[C@@H]([C@H](O)CC2CC(=O)NC(=O)C2)C(=O)[C@@H](C)C1`, the T/C runs as follows: (dose: 5.0 mg/kg/injection) 96 % of control and 105 % of control; (dose: 10.0 mg/kg/injection) 93 % of control and 117 % of control; (dose: 20.0 mg/kg/injection) 117 % of control and 121 % of control; (dose: 40.0 mg/kg/injection) 108 % of control.
On to `O=C(Nc1ccc(NC2=NCCN2)cc1)c1ccc(C(=O)Nc2ccc(NC3=NCCN3)cc2)cc1`, for which the T/C is 113 % of control and 121 % of control (dose: 2.0 mg/kg/injection); 207 % of control (dose: 8.0 mg/kg/injection); 96 % of control (dose: 16.0 mg/kg/injection).
As for `OCC1OC(n2cnc3c(Cl)ncnc32)C(O)C1O` (stereo not drawn), the T/C is 100 % of control and 103 % of control (dose: 62.5 mg/kg/injection); 94 % of control and 103 % of control (dose: 125.0 mg/kg/injection); 94 % of control and 106 % of control (dose: 250.0 mg/kg/injection); 94 % of control and 100 % of control (dose: 500.0 mg/kg/injection).
For `COc1cc(-c2ccc(Nc3ccccc3C(=O)O)c(OC)c2)ccc1Nc1ccccc1C(=O)O`, the T/C is 107 % of control (dose: 12.5 mg/kg/injection), 115 % of control (dose: 25.0 mg/kg/injection) and 123 % of control (dose: 50.0 mg/kg/injection).
For `CS(=O)(=O)OCCCl`, the T/C by setting is: (dose: 9.4 mg/kg/injection) 100 % of control; (dose: 18.8 mg/kg/injection) 100 % of control and 103 % of control; (dose: 37.5 mg/kg/injection) 100 % of control and 106 % of control; (dose: 75.0 mg/kg/injection) 96 % of control and 103 % of control.
With `O=C(O)c1[nH]c(=O)[nH]c(=O)c1F`, the T/C runs as follows: (dose: 1.25 mg/kg/injection) 120 % of control; (dose: 5.0 mg/kg/injection) 163 % of control and 175 % of control; (dose: 10.0 mg/kg/injection) 96 % of control.
As to `Nc1c(Br)cc2c(c1Br)Cc1cc([N+](=O)[O-])ccc1-2`, the T/C by setting is: (dose: 15.6 mg/kg/injection) 100 % of control; (dose: 31.3 mg/kg/injection) 107 % of control and 118 % of control; (dose: 62.5 mg/kg/injection) 107 % of control and 111 % of control; (dose: 125.0 mg/kg/injection) 111 % of control and 114 % of control; (dose: 250.0 mg/kg/injection) 103 % of control.
On to `CS(=O)(=O)OCCC(=O)N1CCN(C(=O)CCOS(C)(=O)=O)CC1`, for which the T/C was 237 % of control (dose: 100.0 mg/kg/injection) and 303 % of control (dose: 200.0 mg/kg/injection).
On to `Cc1cc(N(CCCl)CCCl)ccc1N=Nc1ccccc1C(=O)O`, for which the T/C is 171 % of control (dose: 10.0 mg/kg/injection); 150 % of control and 166 % of control (dose: 20.0 mg/kg/injection).
Turning to `COc1cc(-c2ccc(Nc3ccccc3C(=O)O)c(OC)c2)ccc1N`, where the note is “dose: 10.0 mg/kg/injection”, the T/C was 119 % of control.
As for `CO[C@@H]1[C@@H](OC2OC(C)C(OC3CC(C)(O)C(OC(=O)CC(C)C)C(C)O3)C(N(C)C)C2O)[C@@H](CC=O)C[C@@H](C)C(=O)/C=C/C2O[C@H]2C[C@@H](C)OC(=O)C[C@H]1OC(C)=O` (stereo partly drawn), the T/C runs as follows: (dose: 37.5 mg/kg/injection) 100 % of control and 107 % of control; (dose: 75.0 mg/kg/injection) 100 % of control and 111 % of control; (dose: 150.0 mg/kg/injection) 100 % of control and 118 % of control; (dose: 300.0 mg/kg/injection) 100 % of control and 111 % of control.
In the case of `CCOC(N)=O`, the T/C by setting is: (dose: 125.0 mg/kg/injection) 103 % of control and 117 % of control; (dose: 250.0 mg/kg/injection) 106 % of control and 111 % of control.
On to `O=c1cn[nH]c(=O)[nH]1`, for which the T/C (dose: 62.5 mg/kg/injection) was 93 % of control and 108 % of control; the T/C (dose: 125.0 mg/kg/injection) is 103 % of control and 105 % of control; the T/C (dose: 250.0 mg/kg/injection) is 97 % of control and 106 % of control; the T/C (dose: 500.0 mg/kg/injection) was 102 % of control and 103 % of control.
For the compound `C#CCN(C)Cc1ccccc1`, the T/C reads like this: (dose: 25.0 mg/kg/injection) 93 % of control; (dose: 50.0 mg/kg/injection) 93 % of control; (dose: 100.0 mg/kg/injection) 96 % of control; (dose: 200.0 mg/kg/injection) 96 % of control.
With `S=P(N1CC1)(N1CC1)N1CC1`, the T/C runs as follows: (dose: 0.05 mg/kg/injection) 106 % of control; (dose: 0.75 mg/kg/injection) 110 % of control; (dose: 1.5 mg/kg/injection) 117 % of control and 123 % of control; (dose: 6.0 mg/kg/injection) 114 % of control.
Take `O=C(O)CCCc1ccc(N(CCCl)CCCl)cc1`: the T/C (dose: 3.13 mg/kg/injection) was 100 % of control and 105 % of control; the T/C (dose: 6.25 mg/kg/injection) is 100 % of control and 123 % of control; the T/C (dose: 12.5 mg/kg/injection) was 114 % of control.
Take `O=CCC(O)C(O)C(O)CO` (stereo not drawn): the T/C by setting is: (dose: 62.5 mg/kg/injection) 100 % of control; (dose: 125.0 mg/kg/injection) 100 % of control and 103 % of control; (dose: 250.0 mg/kg/injection) 103 % of control and 107 % of control; (dose: 500.0 mg/kg/injection) 100 % of control and 110 % of control.
`CCCCNc1ncnc2c1cnn2C`: the T/C (dose: 15.6 mg/kg/injection) was 103 % of control and 108 % of control; the T/C (dose: 31.3 mg/kg/injection) is 102 % of control and 103 % of control; the T/C (dose: 62.5 mg/kg/injection) was 100 % of control and 123 % of control.
As for `CSc1ncnc2nc[nH]c12`, the T/C (dose: 25.0 mg/kg/injection) is 100 % of control and 103 % of control; the T/C (dose: 50.0 mg/kg/injection) is 96 % of control and 115 % of control; the T/C (dose: 100.0 mg/kg/injection) was 103 % of control; the T/C (dose: 200.0 mg/kg/injection) is 100 % of control and 115 % of control.
Regarding `N=[N+]=CC(=O)OCC(N)C(=O)O` (stereo not drawn), the T/C is 102 % of control and 111 % of control (dose: 3.13 mg/kg/injection); 102 % of control and 108 % of control (dose: 6.25 mg/kg/injection); 91 % of control and 114 % of control (dose: 12.5 mg/kg/injection).
Consider `CC[n+]1c(-c2ccccc2)c2cc(N)ccc2c2ccc(N)cc21`, for which the T/C (dose: 10.0 mg/kg/injection) was 242 % of control.
On to `O=C(Nc1ccc(C2=NCCN2)cc1)c1cccc(C(=O)Nc2ccc(C3=NCCN3)cc2)c1`, for which the T/C reads like this: (dose: 8.0 mg/kg/injection) 113 % of control and 121 % of control; (dose: 16.0 mg/kg/injection) 120 % of control; (dose: 32.0 mg/kg/injection) 170 % of control and 189 % of control; (dose: 64.0 mg/kg/injection) 235 % of control.
Take `CS(=O)(=O)OCCN(CCOS(C)(=O)=O)c1ccc(N=O)cc1`: the T/C (dose: 0.5 mg/kg/injection) is 123 % of control.
For the compound `Nc1nc(SCc2ccccc2)c2[nH]cnc2n1`, the T/C reads like this: (dose: 8.0 mg/kg/injection) 96 % of control and 100 % of control; (dose: 16.0 mg/kg/injection) 96 % of control and 100 % of control.
On to `O=C(Nc1ccc(C2=NCCN2)cc1)c1ccc(C(=O)Nc2ccc(C3=NCCN3)cc2)c([N+](=O)[O-])c1`, for which the T/C by setting is: (dose: 6.0 mg/kg/injection) 157 % of control; (dose: 8.0 mg/kg/injection) 189 % of control and 278 % of control; (dose: 12.0 mg/kg/injection) 185 % of control and 300 % of control; (dose: 18.0 mg/kg/injection) 96 % of control and 121 % of control.
Regarding `O=c1cnn(C2OC(CO)C(O)C2O)c(=O)[nH]1` (stereo not drawn), the T/C is 106 % of control (dose: 200.0 mg/kg/injection), 112 % of control (dose: 400.0 mg/kg/injection) and 106 % of control (dose: 800.0 mg/kg/injection).
Consider `CCN(CC)CCNc1ccc(C)c2sc3ccccc3c(=O)c12`, for which the T/C runs as follows: (dose: 25.0 mg/kg/injection) 103 % of control; (dose: 50.0 mg/kg/injection) 120 % of control and 123 % of control; (dose: 100.0 mg/kg/injection) 103 % of control.
With `N=C(N)SCc1c2ccccc2c(CSC(=N)N)c2ccccc12`, the T/C (dose: 5.0 mg/kg/injection) was 170 % of control, the T/C (dose: 10.0 mg/kg/injection) is 211 % of control, the T/C (dose: 20.0 mg/kg/injection) was 303 % of control and the T/C (dose: 40.0 mg/kg/injection) was 96 % of control.
On to `S=P(N1CCOCC1)(N1CC1)N1CC1`, for which the T/C (dose: 0.63 mg/kg/injection) is 100 % of control and the T/C (dose: 1.25 mg/kg/injection) is 100 % of control.
For `CN1CC[C@]23c4c5ccc(O)c4O[C@H]2C(=O)CC[C@H]3[C@H]1C5`, the T/C (dose: 4.0 mg/kg/injection) is 96 % of control; the T/C (dose: 8.0 mg/kg/injection) is 100 % of control and 103 % of control; the T/C (dose: 16.0 mg/kg/injection) is 96 % of control and 100 % of control; the T/C (dose: 32.0 mg/kg/injection) was 96 % of control and 100 % of control.
